From patent US10954228B2 (NATIONAL INSTITUTES OF HEALTH, UNITED STATES DEPARTMENT OF …, priority 2016, dated 2021)

Assays:
Human LDHA = Human LDHA (Homo sapiens (Human), UniProt P00338); assay: human LDHA primary biochemical assay; conditions: biochemical LDHA inhibitory activity, assay of Example 1; activity level classes defined in nM
Outline: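 Human LDHA at 2 nM with 0.06 mM NADH and 0.2 mM sodium pyruvate in 200 mM Tris HCl pH 7.4, 100 μM EDTA, 0.01% TWEEN-20 (final). NADH consumption coupled to resazurin/diaphorase (0.037 mM; 0.133 mg/mL); inhibition read by fluorescence.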

MiaPaCa2 cells = assay: cell-based HT lactate assay by colorimetric/fluorometric detection (cellular inhibition of lactate production)
Protocol: This example describes a cell-based metabolite assay by colorimetric/fluorometric detection employed in the characterization of a compound of formula (I) in an embodiment of the invention.
Cell-based HT Lactate assay is a miniaturized Biovision Lactate Colorimetric/Fluorometric Assay Kit (Cat #K607-100). The assay is roughly a 3.5 hour assay run in a 1536 plate format. Cell number optimization should be run for each cell line to achieve an optimal number in which lactate production equals roughly 90% of the standard curve range. Cell number per well optimization has been performed with the following cell lines: MiaPaCa2—500 cells/well, SNU398—500 cells/well, and P493—500 cells/well.

[1] = Homo sapiens, MIA PaCa-2, assay of Example 6

Structure (SMILES)	IC50 (Human LDHA) [nM]	IC50 (MiaPaCa2 cells; [1]) [nM]	IC50 (MiaPaCa2 cells; assay of Example 6) [nM]
NS(=O)(=O)c1ccc(Cc2c(-c3ccc(F)c(-c4ccc(Cl)cc4)c3)nn(-c3nc(C(=O)O)cs3)c2CC2CC2)cc1F [Compound 139, 2-(3-(4′-chloro-6-fluoro-[1,1′-biphenyl]-3-yl)-5-(cyclopropylmethyl)-4-(3-fluoro-4-sulfamoylbenzyl)-1H-pyrazol-1-yl)thiazole-4-carboxylic acid]	< 100	< 1000	–
Cc1cccc(-c2cc(-c3nn(-c4nc(C(=O)O)cs4)c(CC4CC4)c3Cc3ccc(S(N)(=O)=O)c(F)c3)ccc2F)c1 [Compound 141]	< 100	–	< 1000
NS(=O)(=O)c1ccc(Cc2c(-c3ccc(F)c(-c4ccc5c(c4)CCCC5)c3)nn(-c3nc(C(=O)O)cs3)c2CC2CC2)cc1F [Compound 143, 2-(5-(cyclopropylmethyl)-3-(4-fluoro-3-(5,6,7,8-tetrahydronaphthalen-2-yl)phenyl)-4-(3-fluoro-4-sulfamoylbenzyl)-1H-pyrazol-1-yl)thiazole-4-carboxylic acid]	< 100	< 1000	–
NS(=O)(=O)c1ccc(Cc2c(-c3ccc(F)c(C4=CCCCC4)c3)nn(-c3nc(C(=O)O)cs3)c2CC2CC2)cc1F [Compound 146, 2-(5-(cyclopropylmethyl)-3-(6-fluoro-2′,3′,4′,5′-tetrahydro-[1,1′-biphenyl]-3-yl)-4-(3-fluoro-4-sulfamoylbenzyl)-1H-pyrazol-1-yl)thiazole-4-carboxylic acid]	< 100	< 1000	–
NS(=O)(=O)c1ccc(Cc2c(-c3ccc(F)c(-c4cccc(Cl)c4)c3)nn(-c3nc(C(=O)O)cs3)c2CC2CC2)cc1F [Compound 149, 2-(3-(3′-chloro-6-fluoro-[1,1′-biphenyl]-3-yl)-5-(cyclopropylmethyl)-4-(3-fluoro-4-sulfamoylbenzyl)-1H-pyrazol-1-yl)thiazole-4-carboxylic acid]	< 100	< 1000	–
COc1ccc(-c2cccc(-c3nn(-c4nc(C(=O)O)cs4)c(CC4CC4)c3Cc3ccc(S(N)(=O)=O)c(F)c3)c2)cc1C [Compound 165, 2-(5-(cyclopropylmethyl)-4-(3-fluoro-4-sulfamoylbenzyl)-3-(4′-methoxy-3′-methyl-[1,1′-biphenyl]-3-yl)-1H-pyrazol-1-yl) thiazole-4-carboxylic acid]	< 100	< 1000	–
NS(=O)(=O)c1ccc(Cc2c(-c3cccc(-c4ccc(Cl)cc4)c3)nn(-c3nc(C(=O)O)cs3)c2CC2CC2)cc1F [Compound 166, 2-(3-(4′-chloro-[1,1′-biphenyl]-3-yl)-5-(cyclopropylmethyl)-4-(3-fluoro-4-sulfamoylbenzyl)-1H-pyrazol-1-yl)thiazole-4-carboxylic acid]	< 100	< 1000	–
CC(C)(C)c1ccc(-c2cccc(-c3nn(-c4nc(C(=O)O)cs4)c(CC4CC4)c3Cc3ccc(S(N)(=O)=O)c(F)c3)c2)cc1 [Compound 168, 2-(3-(4′-(tert-butyl)-[1,1′-biphenyl]-3-yl)-5-(cyclopropylmethyl)-4-(3-fluoro-4-sulfamoylbenzyl)-1H-pyrazol-1-yl)thiazole-4-carboxylic acid]	100 to 1000	< 1000	–
NS(=O)(=O)c1ccc(Cc2c(-c3cccc(-c4cccc(Cl)c4)c3)nn(-c3nc(C(=O)O)cs3)c2CC2CC2)cc1F [Compound 175, 2-(3-(3′-chloro-[1,1′-biphenyl]-3-yl)-5-(cyclopropylmethyl)-4-(3-fluoro-4-sulfamoylbenzyl)-1H-pyrazol-1-yl)thiazole-4-carboxylic acid]	< 100	> 57000	–
N#Cc1ccc(-c2cccc(-c3nn(-c4nc(C(=O)O)cs4)c(CC4CC4)c3Cc3ccc(S(N)(=O)=O)c(F)c3)c2)cc1 [Compound 176, 2-(3-(4′-cyano-[1,1′-biphenyl]-3-yl)-5-(cyclopropylmethyl)-4-(3-fluoro-4-sulfamoylbenzyl)-1H-pyrazol-1-yl)thiazole-4-carboxylic acid]	< 100	> 57000	–
NS(=O)(=O)c1ccc(Cc2c(-c3cccc(-c4cc(F)cc(F)c4)c3)nn(-c3nc(C(=O)O)cs3)c2CC2CC2)cc1F [Compound 177, 2-(5-(cyclopropylmethyl)-3-(3′,5′-difluoro-[1,1′-biphenyl]-3-yl)-4-(3-fluoro-4-sulfamoylbenzyl)-1H-pyrazol-1-yl)thiazole-4-carboxylic acid]	< 100	> 57000	–

The next lines start with results.

IC50 (Human LDHA) [nM]	IC50 (MiaPaCa2 cells; [1]) [nM]	Structure (SMILES)	IC50 (MiaPaCa2 cells; assay of Example 6) [nM]
< 100	< 1000	NS(=O)(=O)c1ccc(Cc2c(-c3ccc(F)c(-c4ccc(Cl)c(F)c4)c3)nn(-c3nc(C(=O)O)cs3)c2CC2CC2)cc1F [Compound 144, 2-(3-(4′-chloro-3′,6-difluoro-[1,1′-biphenyl]-3-yl)-5-(cyclopropylmethyl)-4-(3-fluoro-4-sulfamoylbenzyl)-1H-pyrazol-1-yl)thiazole-4-carboxylic acid]	–
< 100	< 1000	COc1ccc(-c2cc(-c3nn(-c4nc(C(=O)O)cs4)c(CC4CC4)c3Cc3ccc(S(N)(=O)=O)c(F)c3)ccc2F)cc1C [Compound 150, 2-(5-(cyclopropylmethyl)-3-(6-fluoro-4′-methoxy-3′-methyl-[1,1′-biphenyl]-3-yl)-4-(3-fluoro-4-sulfamoylbenzyl)-1H-pyrazol-1-yl)thiazole-4-carboxylic acid]	–
100 to 1000	< 1000	Cc1cc(C)cc(-c2cc(-c3nn(-c4nc(C(=O)O)cs4)c(CC4CC4)c3Cc3ccc(S(N)(=O)=O)c(F)c3)ccc2F)c1 [Compound 151, 2-(5-(cyclopropylmethyl)-3-(6-fluoro-3′,5′-dimethyl-[1,1′-biphenyl]-3-yl)-4-(3-fluoro-4-sulfamoylbenzyl)-1H-pyrazol-1-yl)thiazole-4-carboxylic acid]	–
< 100	< 1000	COc1cc(OC)cc(-c2cc(-c3nn(-c4nc(C(=O)O)cs4)c(CC4CC4)c3Cc3ccc(S(N)(=O)=O)c(F)c3)ccc2F)c1 [Compound 153, 2-(5-(cyclopropylmethyl)-3-(6-fluoro-3′,5′-dimethoxy-[1,1′-biphenyl]-3-yl)-4-(3-fluoro-4-sulfamoylbenzyl)-1H-pyrazol-1-yl)thiazole-4-carboxylic acid]	–
< 100	< 1000	NS(=O)(=O)c1ccc(Cc2c(-c3ccc(F)c(-c4ccc5c(c4)CCC5)c3)nn(-c3nc(C(=O)O)cs3)c2CC2CC2)cc1F [Compound 155, 2-(5-(cyclopropylmethyl)-3-(3-(2,3-dihydro-1H-inden-5-yl)-4-fluorophenyl)-4-(3-fluoro-4-sulfamoylbenzyl)-1H-pyrazol-1-yl)thiazole-4-carboxylic acid]	–
< 100	< 1000	NS(=O)(=O)c1ccc(Cc2c(-c3ccc(F)c(-c4cc(F)cc(F)c4)c3)nn(-c3nc(C(=O)O)cs3)c2CC2CC2)cc1F [Compound 156, 2-(5-(cyclopropylmethyl)-4-(3-fluoro-4-sulfamoylbenzyl)-3-(3′,5′,6-trifluoro-[1,1′-biphenyl]-3-yl)-1H-pyrazol-1-yl)thiazole-4-carboxylic acid]	–
100 to 1000	< 1000	NS(=O)(=O)c1ccc(Cc2c(-c3ccc(F)c(-c4cc(Cl)cc(Cl)c4)c3)nn(-c3nc(C(=O)O)cs3)c2CC2CC2)cc1F [Compound 157, 2-(5-(cyclopropylmethyl)-3-(3′,5′-dichloro-6-fluoro-[1,1′-biphenyl]-3-yl)-4-(3-fluoro-4-sulfamoylbenzyl)-1H-pyrazol-1-yl)thiazole-4-carboxylic acid]	–
< 100	< 1000	NS(=O)(=O)c1ccc(Cc2c(-c3cccc(-c4ccc(Cl)c(F)c4)c3)nn(-c3nc(C(=O)O)cs3)c2CC2CC2)cc1F [Compound 164, 2-(3-(4′-chloro-3′-fluoro-[1,1′-biphenyl]-3-yl)-5-(cyclopropylmethyl)-4-(3-fluoro-4-sulfamoylbenzyl)-1H-pyrazol-1-yl)thiazole-4-carboxylic acid]	–
< 100	< 1000	Cc1ccc(-c2cccc(-c3nn(-c4nc(C(=O)O)cs4)c(CC4CC4)c3Cc3ccc(S(N)(=O)=O)c(F)c3)c2)cc1F [Compound 167, 2-(5-(cyclopropylmethyl)-3-(3′-fluoro-4′-methyl-[1,1′-biphenyl]-3-yl)-4-(3-fluoro-4-sulfamoylbenzyl)-1H-pyrazol-1-yl)thiazole-4-carboxylic acid]	–
< 100	< 1000	CC(C)c1ccc(-c2cccc(-c3nn(-c4nc(C(=O)O)cs4)c(CC4CC4)c3Cc3ccc(S(N)(=O)=O)c(F)c3)c2)cc1 [Compound 169, 2-(5-(cyclopropylmethyl)-4-(3-fluoro-4-sulfamoylbenzyl)-3-(4′-isopropyl-[1,1′-biphenyl]-3-yl)-1H-pyrazol-1-yl)thiazole-4-carboxylic acid]	–
< 100	> 57000	CC(C)c1cccc(-c2cccc(-c3nn(-c4nc(C(=O)O)cs4)c(CC4CC4)c3Cc3ccc(S(N)(=O)=O)c(F)c3)c2)c1 [Compound 173, 2-(5-(cyclopropylmethyl)-4-(3-fluoro-4-sulfamoylbenzyl)-3-(3′-isopropyl-[1,1′-biphenyl]-3-yl)-1H-pyrazol-1-yl)thiazole-4-carboxylic acid]	–
100 to 1000	> 57000	NS(=O)(=O)c1ccc(Cc2c(-c3cccc(-c4ccc5c(c4)CCCC5)c3)nn(-c3nc(C(=O)O)cs3)c2CC2CC2)cc1F [Compound 174, 2-(5-(cyclopropylmethyl)-4-(3-fluoro-4-sulfamoylbenzyl)-3-(3-(5,6,7,8-tetrahydronaphthalen-2-yl)phenyl)-1H-pyrazol-1-yl)thiazole-4-carboxylic acid]	–
